Biological target: T1, recombinant human oncostatin M (Homo sapiens, UniProt P13725)
T1 construct: gene OSM; labelled with RED-NHS 2nd generation dye for MST
T1 sequence (P13725 26-221): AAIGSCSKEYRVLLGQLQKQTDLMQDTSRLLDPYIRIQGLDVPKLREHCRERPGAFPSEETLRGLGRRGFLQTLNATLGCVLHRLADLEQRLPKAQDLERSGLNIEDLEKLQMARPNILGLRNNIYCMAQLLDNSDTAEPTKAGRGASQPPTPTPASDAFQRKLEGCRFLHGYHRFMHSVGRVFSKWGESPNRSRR
Assay: microscale thermophoresis
Type: binding

Kd: 11.4 ± 2.83 µM
Compound: CC1(C)[C@@H]2CC[C@@]1(CS(=O)(=O)O)C(=O)/C2=C/c1ccc(/C=C2/C(=O)[C@]3(CS(=O)(=O)O)CC[C@H]2C3(C)C)cc1 [1a, Ecamsule]
